# In ChEMBL document CHEMBL1128161, “Novel prostanoid thromboxane A2 antagonists” (Bioorg Med Chem Lett, 1995):
# Biological target: T1, Thromboxane A2 receptor (Homo sapiens) (UniProt P21731)
# T1 sequence (whole entry): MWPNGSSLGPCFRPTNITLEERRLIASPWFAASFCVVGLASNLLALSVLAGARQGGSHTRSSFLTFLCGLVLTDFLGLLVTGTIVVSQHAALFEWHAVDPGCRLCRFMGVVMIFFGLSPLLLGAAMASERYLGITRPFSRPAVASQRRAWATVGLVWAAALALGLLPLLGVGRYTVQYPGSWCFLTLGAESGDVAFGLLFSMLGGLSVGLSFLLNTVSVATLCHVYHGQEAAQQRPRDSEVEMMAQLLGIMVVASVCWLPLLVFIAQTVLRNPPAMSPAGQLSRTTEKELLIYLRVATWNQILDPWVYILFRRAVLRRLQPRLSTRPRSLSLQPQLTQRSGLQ
# Test: Thromboxane A2 receptor binding affinity was evaluated, which is expressed as competition factor (CF = (IC50-test) / (IC50-standard); not parallel; call rule not given here
row,Compound,CF
1,O=C(O)COCCCCC1=CCC[C@@H]1CNS(=O)(=O)c1ccc(F)cc1,0.5
2,O=C(O)COCCCC[C@@H]1[C@@H](CNS(=O)(=O)c2ccc(F)cc2)CC[C@H]1F,6.7
3,O=C(O)COCCCC[C@H]1[C@H](F)CC[C@@H]1NS(=O)(=O)c1ccccc1,9.1
4,O=C(O)CC/C=C\C[C@@H]1[C@@H](CNS(=O)(=O)c2ccc(Cl)cc2)CC[C@@H]1F,1.8
5,O=C(O)CC/C=C\C[C@@H]1[C@@H](CNS(=O)(=O)c2ccc(F)cc2)CC[C@H]1F,11
6,Cc1ccc(S(=O)(=O)NC[C@H]2CC[C@H](F)[C@@H]2C/C=C\CCC(=O)O)cc1,6
7,Cc1ccc(S(=O)(=O)N[C@H]2CC[C@@H](F)[C@@H]2CCCCOCC(=O)O)cc1,3.5
8,O=C(O)COCCCC[C@H]1[C@H](F)CC[C@@H]1NS(=O)(=O)c1ccc(F)cc1,2.7

# Biological target: T1, Thromboxane A2 receptor (Homo sapiens)
# Test: Thromboxane A2 receptor binding affinity was evaluated as competition factor (CF = (IC50-test) / (IC50-standard)
row,Compound,CF
1,O=C(O)CC/C=C\C[C@H]1[C@H](F)CC[C@@H]1NS(=O)(=O)c1ccc(Cl)c(Cl)c1,1.4

# Organism: Homo sapiens
# Test: Compound was evaluated for the inhibition of platelet aggregation, assessed turbidimetrically in citreated human platelet rich plasma (PRP); NE means not effective
# Assay type: functional, organism-based
row,Compound,IC50
1,O=C(O)CCC/C=C\CC1=CCC[C@@H]1NS(=O)(=O)c1ccc(Cl)cc1,Not Active
2,O=C(O)CCC/C=C\CC1=CCC[C@@H]1NS(=O)(=O)c1ccc(F)cc1F,Not Active
3,O=C(O)COCCCCC1=CCC[C@@H]1NS(=O)(=O)c1ccc(Cl)cc1,Not Active
4,O=C(O)COCCCC[C@H]1[C@H](F)CC[C@@H]1NS(=O)(=O)c1ccc(Cl)c(Cl)c1,Not Active
5,O=C(O)CC/C=C\C[C@@H]1[C@@H](CNS(=O)(=O)c2ccc(Cl)cc2)CC[C@@H]1F,Not Active
6,O=C(O)CCC/C=C\CC1=CCC[C@@H]1NS(=O)(=O)c1ccc(Cl)c(Cl)c1,Not Active
7,O=C(O)COCCCC[C@H]1[C@H](F)CC[C@@H]1NS(=O)(=O)c1ccc(Cl)cc1,Not Active
8,Cc1ccc(S(=O)(=O)NC[C@H]2CC[C@H](F)[C@@H]2C/C=C\CCC(=O)O)cc1,Not Active

# Biological target: T1, Thromboxane A2 receptor (Homo sapiens)
# Test: Thromboxane A2 receptor binding affinity was evaluated, which is expressed as competition factor (CF = (IC50-test) / (IC50-standard)
row,Compound,CF
1,O=C(O)CCCCCC[C@H]1[C@H](F)CC[C@@H]1NS(=O)(=O)c1ccc(F)cc1,7.5
2,O=C(O)COCCCC[C@H]1[C@H](F)CC[C@@H]1NS(=O)(=O)c1ccc(F)cc1F,30
3,O=C(O)CCC/C=C\C[C@H]1[C@H](F)CC[C@@H]1NS(=O)(=O)c1ccc(F)cc1,1.5
4,O=C(O)CCC/C=C\C[C@@H]1[C@@H](CNS(=O)(=O)c2ccc(F)cc2)CC[C@H]1F,50
5,Cc1ccc(S(=O)(=O)N[C@H]2CC[C@@H](F)[C@@H]2C/C=C\CCCC(=O)O)cc1,1.5
6,Cc1ccc(S(=O)(=O)NC[C@H]2CC[C@@H](F)[C@@H]2C/C=C\CCC(=O)O)cc1,154
7,O=C(O)CC/C=C\C[C@@H]1[C@@H](CNS(=O)(=O)c2ccc(F)cc2)CC[C@H]1F (stereo in doubt; form 2),300
8,O=C(O)CC/C=C\CC1=CCC[C@@H]1CNS(=O)(=O)c1ccc(F)cc1,21
9,O=C(O)CCC/C=C\CC1=CCC[C@@H]1NS(=O)(=O)c1ccc(F)cc1 (stereo in doubt),1.5
10,O=C(O)CCC/C=C\CC1=CCC[C@@H]1NS(=O)(=O)c1ccc(Cl)cc1,0.3
11,O=C(O)CCC/C=C\CC1=CCC[C@@H]1NS(=O)(=O)c1ccc(F)cc1F,1.5
12,O=C(O)CCC/C=C\C[C@H]1[C@H](F)CC[C@@H]1NS(=O)(=O)c1ccc(Cl)cc1,0.3
13,Cc1ccc(S(=O)(=O)N[C@H]2CCC=C2C/C=C\CCCC(=O)O)cc1,1.5
14,O=C(O)COCCCCC1=CCC[C@@H]1NS(=O)(=O)c1ccc(Cl)cc1,2.6
15,O=C(O)COCCCCC1=CCC[C@@H]1NS(=O)(=O)c1ccc(F)cc1,13
16,O=C(O)CC/C=C\CC1=CCC[C@@H]1NS(=O)(=O)c1ccc(Cl)c(Cl)c1,13
17,O=C(O)CCC/C=C\C[C@H]1[C@H](F)CC[C@@H]1NS(=O)(=O)c1ccccc1,4
18,Cc1ccc(S(=O)(=O)N[C@H]2CC[C@@H](F)[C@@H]2C/C=C\CCC(=O)O)cc1,5.1
19,O=C(O)CCC/C=C\CC1=CCC[C@@H]1NS(=O)(=O)c1ccccc1,3.5

row,Compound,CF
1,O=C(O)CC/C=C\CC1=CCC[C@@H]1NS(=O)(=O)c1ccc(F)cc1F,14
2,O=C(O)CC/C=C\C[C@@H]1[C@@H](CNS(=O)(=O)c2ccc(Cl)cc2)CC[C@H]1F,40
3,O=C(O)COCCCC[C@H]1[C@H](F)CC[C@@H]1NS(=O)(=O)c1ccc(Cl)c(Cl)c1,2.3
4,O=C(O)COCCCC[C@H]1[C@H](F)CC[C@@H]1NS(=O)(=O)c1ccccc1[N+](=O)[O-],330
5,O=C(O)CCC/C=C\CC1=CCC[C@@H]1NS(=O)(=O)c1ccc(F)cc1 (stereo in doubt; 3d),1.5
6,O=C(O)COCCCCC1=CCC[C@@H]1NS(=O)(=O)c1ccc(F)cc1F,22
7,O=C(O)CCC/C=C\CC1=CCC[C@@H]1NS(=O)(=O)c1ccc2ccccc2c1,0.3
8,O=C(O)CCC/C=C\CC1=CCC[C@@H]1CNS(=O)(=O)c1ccc(F)cc1,17
9,O=C(O)COCCCCC1=CCC[C@@H]1NS(=O)(=O)c1ccccc1,26
10,O=C(O)CC/C=C\C[C@H]1[C@H](F)CC[C@@H]1NS(=O)(=O)c1ccccc1[N+](=O)[O-],370
11,O=C(O)CC/C=C\CC1=CCC[C@@H]1NS(=O)(=O)c1ccccc1,12
12,O=C(O)CC/C=C\CC1=CCC[C@@H]1NS(=O)(=O)c1ccc(F)cc1,5.5
13,O=C(O)CC/C=C\C[C@@H]1[C@@H](CNS(=O)(=O)c2ccc(F)cc2)CC[C@H]1F (stereo in doubt; form 1),300
14,Cc1ccc(S(=O)(=O)N[C@H]2CCC=C2C/C=C\CCC(=O)O)cc1,7.4
15,O=C(O)CC/C=C\CC1=CCC[C@@H]1NS(=O)(=O)c1ccccc1[N+](=O)[O-],40
16,O=C(O)CCC/C=C\C[C@H]1[C@H](F)CC[C@@H]1NS(=O)(=O)c1cccc2cccnc12,340
17,O=C(O)CCCC=CCC1=CCC[C@@H]1NS(=O)(=O)c1cccc2cccnc12,560
18,O=C(O)CC/C=C\C[C@@H]1[C@@H](CNS(=O)(=O)c2ccc(F)cc2)CC[C@@H]1F,11
19,O=C(O)CCC/C=C\C[C@H]1[C@H](F)CC[C@@H]1NS(=O)(=O)c1ccc2ccccc2c1,0.3

row,Compound,CF
1,O=C(O)CCCCCCC1=CCC[C@@H]1NS(=O)(=O)c1ccc(F)cc1,2.7
2,O=C(O)COCCCCC1=CCC[C@@H]1NS(=O)(=O)c1ccc(Cl)c(Cl)c1,7.6
3,O=C(O)COCCCCC1=CCC[C@@H]1NS(=O)(=O)c1ccccc1[N+](=O)[O-],130
4,O=C(O)CCC/C=C\CC1=CCC[C@@H]1NS(=O)(=O)c1ccccc1[N+](=O)[O-],6.6
5,O=C(O)CCC/C=C\C[C@H]1[C@H](F)CC[C@@H]1NS(=O)(=O)c1ccccc1[N+](=O)[O-],10
6,O=C(O)CC/C=C\C[C@H]1[C@H](F)CC[C@@H]1NS(=O)(=O)c1ccc(F)cc1,4.3
7,O=C(O)CC/C=C/C[C@H]1[C@H](F)CC[C@@H]1NS(=O)(=O)c1ccc(F)cc1F,6.6
8,O=C(O)CCC/C=C\C[C@H]1[C@H](F)CC[C@@H]1NS(=O)(=O)c1ccc(F)cc1F,1.1
9,O=C(O)CCCC=CC[C@H]1[C@H](F)CC[C@@H]1NS(=O)(=O)c1ccc(F)cc1,1.5
10,Cc1ccc(S(=O)(=O)N[C@H]2CCC=C2CCCCOCC(=O)O)cc1,11
11,O=C(O)CC/C=C\CC1=CCC[C@@H]1NS(=O)(=O)c1ccc(Cl)cc1,2.8
12,O=C(O)CCC/C=C\CC1=CCC[C@@H]1NS(=O)(=O)c1ccc(Cl)c(Cl)c1,1.1
13,O=C(O)CC/C=C\C[C@H]1[C@H](F)CC[C@@H]1NS(=O)(=O)c1ccc(Cl)cc1,1.3
14,O=C(O)COCCCC[C@H]1[C@H](F)CC[C@@H]1NS(=O)(=O)c1ccc(Cl)cc1,0.8
15,O=C(O)CC/C=C\C[C@H]1[C@H](F)CC[C@@H]1NS(=O)(=O)c1ccccc1,10
16,O=C(O)CCC/C=C\C[C@H]1[C@H](F)CC[C@@H]1NS(=O)(=O)c1ccc(Cl)c(Cl)c1,0.5
17,O=C(O)CCCCC[C@@H]1[C@@H](CNS(=O)(=O)c2ccc(F)cc2)CC[C@H]1F,380
18,O=C(O)CCCCCC[C@@H]1[C@@H](CNS(=O)(=O)c2ccc(F)cc2)CC[C@H]1F,260
